Counter-ions that a name gives are not always drawn.
Assays:
Type in all cases: biochemical
[1] = target: SIK3 (Homo sapiens (Human), UniProt Q9Y2K2); assay: SIK3 enzymatic activity assay, RapidFire mass spectrometry (CHK-peptide phosphorylation); details: 1.5 nM SIK3, CHK-peptide, ATP, 30 min pre-incubation, 45 min reaction, RapidFire MS; read-out: SIK3 RF IC50
Procedure: (§1) In the presence of SIK2 (resp. SIK1 or SIK3) and ATP the CHK-peptide ([…] with C-terminal arginine amide modification) were phosphorylated at one of the four feasible serine's. Only one phosphorylation is observed under the assay conditions. 60 nl of each compound dilution series (12 point; dilution factor 3, generally 30 μM to 170 pM) in DMSO were transferred by acoustic dispensing to the assay plate and 30 min pre-incubated (ambient temperature) after the addition of 5 μl SIK1 (5 nM) resp. 5 μl SIK2 (0.5 nM) or 7 μl SIK3 (1.5 nM) in assay-buffer (12.5 mM HEPES (pH 7.0), 10 mM magnesium acetate, 0.005% BSA). 10 μM CHK-peptide solution and 5 μl 100 μM ATP for SIK1 & SIK2 resp. 3 μl for SIK3 in assay-buffer were added and incubated ambient for 45 min. 40 μl 0.125% formic acid in water were added to quench the reaction. RapidFire (RF) Mass Spectrometry was utilized for data generation as described below. The multiple charged species (3-5 charges) for the phosphorylated and non-phosphorylated form measured by MRM (Multiple Reaction Monitoring; API5000 or 6500+) or EIC (Extracted Ion Current; QToF) were summed up and the ratio calculated (sum phosphorylated species/sum all species) for data evaluation. Normalization was performed by Genedata software based on the non-inhibition control DMSO and the commercially available SIK inhibitor @ 1 μM YKL-05-099 (CAS number 1936529-65-5). The results of the assay are expressed in half-maximal inhibitory concentrations (IC50s) and are summarized below in Table 1.
(§2) Samples were aspirated by vacuum for max. 600 ms and loaded to C4-cartridge (Agilent; #G9203A) for 3000 ms@1.5 ml/min with 0.1% formic acid in water. Afterwards samples were transferred to the API5000 (API6500+) or QToF mass spectrometer for 4000 ms@1.25 ml/min with 90% acetonitrile; 10% water; 0.007% TFA; 0.093 formic acid. The cartridge was reconditioned for additional 500 ms with 0.1% formic acid in water
(§3) All MS analyses using the following MS-setup in MRM mode: Electrospray positive; Ion Spray Voltage: 4000V; Temperature: 550° C.; Collision Gas: 5; Curtain Gas: 15; Gas1: 40; Gas 2: 42; EP: 10
(§4) All MS analyses using the following MS-setup in Mode MS: Dual AJS Electrospray positive; VCap: 3000V; Drying & Sheath gas: 340° C.@81/min; Nebulizer: 60 psig; Nozzle Voltage: 2000V; Fragmentor: 130V; Skimmer: 35V; Oct1 RF Vpp: 700V; Ref masses on@5spectra/s

[2] = target: SIK2 (Homo sapiens (Human), UniProt Q9H0K1); assay: SIK2 enzymatic activity assay, RapidFire mass spectrometry (CHK-peptide phosphorylation); details: 0.5 nM SIK2, CHK-peptide, ATP, 30 min pre-incubation, 45 min reaction, RapidFire MS; read-out: SIK2 RF IC50
Procedure: as §1, §2, §3, §4

[3] = target: SIK1 (Homo sapiens (Human), UniProt P57059); assay: SIK1 enzymatic activity assay, RapidFire mass spectrometry (CHK-peptide phosphorylation); details: 5 nM SIK1, CHK-peptide, ATP, 30 min pre-incubation, 45 min reaction, RapidFire MS; read-out: SIK1 RF IC50
Procedure: as §1, §2, §3, §4

Chain of SIK2 (Q9H0K1 whole entry): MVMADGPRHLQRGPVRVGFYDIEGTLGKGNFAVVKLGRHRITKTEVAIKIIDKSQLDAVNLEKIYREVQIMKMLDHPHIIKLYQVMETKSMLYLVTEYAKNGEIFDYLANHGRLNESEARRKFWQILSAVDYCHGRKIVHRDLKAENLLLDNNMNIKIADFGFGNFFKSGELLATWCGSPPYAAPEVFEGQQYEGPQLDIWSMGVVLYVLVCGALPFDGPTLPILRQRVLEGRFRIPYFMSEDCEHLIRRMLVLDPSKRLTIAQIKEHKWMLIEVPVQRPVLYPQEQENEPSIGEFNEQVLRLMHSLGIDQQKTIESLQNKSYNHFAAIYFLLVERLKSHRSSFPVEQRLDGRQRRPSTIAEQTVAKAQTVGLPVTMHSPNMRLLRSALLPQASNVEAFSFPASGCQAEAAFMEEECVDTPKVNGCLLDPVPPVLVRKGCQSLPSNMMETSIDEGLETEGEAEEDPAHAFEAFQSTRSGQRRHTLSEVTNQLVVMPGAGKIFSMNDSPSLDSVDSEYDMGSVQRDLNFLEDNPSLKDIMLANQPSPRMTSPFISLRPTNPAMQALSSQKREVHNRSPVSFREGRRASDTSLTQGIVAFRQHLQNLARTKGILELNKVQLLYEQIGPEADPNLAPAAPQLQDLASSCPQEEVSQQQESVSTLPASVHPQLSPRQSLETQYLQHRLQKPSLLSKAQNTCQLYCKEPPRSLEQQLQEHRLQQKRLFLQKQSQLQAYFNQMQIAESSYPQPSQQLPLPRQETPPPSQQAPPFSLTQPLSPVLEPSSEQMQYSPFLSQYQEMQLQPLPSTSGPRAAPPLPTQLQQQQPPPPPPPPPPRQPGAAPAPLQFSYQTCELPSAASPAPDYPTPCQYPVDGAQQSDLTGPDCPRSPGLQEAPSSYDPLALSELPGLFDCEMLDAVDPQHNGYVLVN
Chain of SIK1 (P57059 whole entry): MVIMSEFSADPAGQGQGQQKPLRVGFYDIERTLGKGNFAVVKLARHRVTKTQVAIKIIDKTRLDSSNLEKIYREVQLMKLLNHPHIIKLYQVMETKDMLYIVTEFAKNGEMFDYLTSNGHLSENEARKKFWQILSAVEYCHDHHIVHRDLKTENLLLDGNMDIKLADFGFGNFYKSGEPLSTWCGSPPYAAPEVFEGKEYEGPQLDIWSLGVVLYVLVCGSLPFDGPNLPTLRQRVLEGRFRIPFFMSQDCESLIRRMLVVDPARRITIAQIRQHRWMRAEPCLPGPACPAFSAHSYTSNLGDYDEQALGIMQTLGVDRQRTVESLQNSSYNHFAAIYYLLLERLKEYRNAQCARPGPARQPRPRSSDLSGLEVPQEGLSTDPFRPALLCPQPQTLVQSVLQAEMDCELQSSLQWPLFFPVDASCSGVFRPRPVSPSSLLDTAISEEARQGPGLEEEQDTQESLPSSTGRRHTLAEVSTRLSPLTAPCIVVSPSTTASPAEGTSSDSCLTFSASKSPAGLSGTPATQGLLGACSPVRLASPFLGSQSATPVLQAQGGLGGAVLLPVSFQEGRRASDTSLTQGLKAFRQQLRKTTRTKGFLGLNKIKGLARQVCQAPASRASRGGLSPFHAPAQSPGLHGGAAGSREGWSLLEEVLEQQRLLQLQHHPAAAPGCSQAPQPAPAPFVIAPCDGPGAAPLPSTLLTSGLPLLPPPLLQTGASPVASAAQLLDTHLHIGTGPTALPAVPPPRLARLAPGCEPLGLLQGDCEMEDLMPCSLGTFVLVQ
Chain of SIK3 (Q9Y2K2 whole entry): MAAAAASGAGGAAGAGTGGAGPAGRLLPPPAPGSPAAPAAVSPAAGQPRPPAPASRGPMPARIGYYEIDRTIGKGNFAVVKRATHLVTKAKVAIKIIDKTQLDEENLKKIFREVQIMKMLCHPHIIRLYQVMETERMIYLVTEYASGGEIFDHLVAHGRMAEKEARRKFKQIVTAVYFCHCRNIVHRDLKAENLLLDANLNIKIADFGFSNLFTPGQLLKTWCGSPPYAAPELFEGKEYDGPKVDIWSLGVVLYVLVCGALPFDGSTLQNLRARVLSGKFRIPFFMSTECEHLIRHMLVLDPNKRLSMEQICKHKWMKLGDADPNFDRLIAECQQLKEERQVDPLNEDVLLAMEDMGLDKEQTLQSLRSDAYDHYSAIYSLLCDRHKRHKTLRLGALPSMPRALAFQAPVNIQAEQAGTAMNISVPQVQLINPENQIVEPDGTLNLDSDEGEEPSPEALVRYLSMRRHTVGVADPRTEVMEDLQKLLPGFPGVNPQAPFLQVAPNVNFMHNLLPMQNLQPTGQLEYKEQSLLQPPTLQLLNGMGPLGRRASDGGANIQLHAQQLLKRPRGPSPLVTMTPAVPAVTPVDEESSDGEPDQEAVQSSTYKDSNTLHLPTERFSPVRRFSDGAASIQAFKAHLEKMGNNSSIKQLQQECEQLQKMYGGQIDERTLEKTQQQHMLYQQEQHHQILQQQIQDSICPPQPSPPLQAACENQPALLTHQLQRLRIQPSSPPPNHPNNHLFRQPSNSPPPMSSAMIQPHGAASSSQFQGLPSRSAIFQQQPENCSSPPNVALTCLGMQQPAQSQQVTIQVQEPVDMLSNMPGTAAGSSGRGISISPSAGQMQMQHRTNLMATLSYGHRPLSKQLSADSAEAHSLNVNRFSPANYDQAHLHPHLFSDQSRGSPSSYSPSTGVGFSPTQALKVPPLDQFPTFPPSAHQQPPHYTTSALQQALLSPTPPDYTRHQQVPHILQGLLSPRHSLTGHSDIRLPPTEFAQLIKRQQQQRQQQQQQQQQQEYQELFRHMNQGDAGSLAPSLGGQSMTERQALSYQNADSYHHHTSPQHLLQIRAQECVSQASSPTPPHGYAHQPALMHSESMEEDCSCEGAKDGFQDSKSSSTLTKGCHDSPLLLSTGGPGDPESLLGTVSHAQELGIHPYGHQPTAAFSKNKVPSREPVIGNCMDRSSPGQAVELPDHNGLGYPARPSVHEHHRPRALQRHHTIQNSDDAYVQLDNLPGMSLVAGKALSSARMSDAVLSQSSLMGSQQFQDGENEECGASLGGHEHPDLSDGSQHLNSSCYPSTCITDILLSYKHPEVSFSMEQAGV

Structure (SMILES) | IC50 [1] [nM] | IC50 [2] [nM] | IC50 [3] [nM]
Cc1cc(C#N)nn1-c1nc(-n2cnc3cc(OCCN4CCOCC4)ccc32)ccc1C(N)=O [Example 22, 2-(3-Cyano-5-methyl-pyrazol-1-yl)-6-[5-(2-morpholinoethoxy)benzimidazol-1-yl]pyridine-3-carboxamide] | 12200 | 7410 | 19800
Cc1ccc(Nc2ccc3c(c2)ncn3-c2ccc(C(=O)C(F)(F)F)c(-n3nc(C#N)cc3C)n2)nn1 [Example 34, 5-methyl-1-[6-[5-[(6-methylpyridazin-3-yl)amino]benzimidazol-1-yl]-3-(2,2,2-trifluoroacetyl)-2-pyridyl]pyrazole-3-carbonitrile] | 31.7 | 41.4 | 2330
CCNC(=O)c1ccc(-n2cnc3cc(OC)c(OC)cc32)nc1-c1cccc(C#N)c1 [Example 17, 2-(3-cyanophenyl)-6-(5,6-dimethoxybenzimidazol-1-yl)-N-ethyl-pyridine-3-carboxamide] | 21600 | 5070 | 14900
CC(=O)c1ccc(-n2cnc3cc4c(cc32)C(C)(C)C(=O)N4c2ccc(C)nn2)nc1-n1nc(C#N)cc1C [Example 35, 1-[3-acetyl-6-[6-keto-7,7-dimethyl-5-(6-methylpyridazin-3-yl)pyrrolo[2,3-f]benzimidazol-1-yl]-2-pyridyl]-5-methyl-pyrazole-3-carbonitrile] | 150 | 115 | 101
COC(=O)c1ccc(-n2cnc3cc(OC)c(OC)cc32)nc1N1CCCCC1=O [Example 14, Methyl 6-(5,6-dimethoxy-1H-benzo[d]imidazol-1-yl)-2-(2-oxopiperidin-1-yl)nicotinate] | 18000 | 5150 | 7480
CC(=O)c1ccc(-n2cnc3cc(Nc4ccc(C)nn4)ccc32)nc1-n1nc(C#N)cc1C [Example 27, 1-[3-Acetyl-6-[5-[(6-methylpyridazin-3-yl)amino]benzimidazol-1-yl]-2-pyridyl]-5-methyl-pyrazole-3-carbonitrile] | 8.1 | 6.6 | 669
COc1cc2ncn(-c3ccc(C(N)=O)c(-c4cccc(C#N)c4)n3)c2cc1OC [Example 21, 2-(3-Cyanophenyl)-6-(5,6-dimethoxybenzimidazol-1-yl)pyridine-3-carboxamide] | 3500 | 878 | 659
Cc1cc(C#N)nn1-c1nc(-n2cnc3cc(N[C@H]4CNC[C@H]4F)ccc32)ccc1C(N)=O [Example 25, 2-(3-Cyano-5-methyl-pyrazol-1-yl)-6-[5-[[(3S,4R)-4-fluoropyrrolidin-3-yl]amino]benzimidazol-1-yl]pyridine-3-carboxamide; formic acid] | 257 | 171 | 914
Cc1ccc(Nc2ccc3ncn(-c4ccc(C=O)c(N5C[C@H](C#N)C[C@@H]5C)n4)c3c2)nn1 [Example 32, (3R,5S)-1-[3-formyl-6-[6-[(6-methylpyridazin-3-yl)amino]benzimidazol-1-yl]-2-pyridyl]-5-methyl-pyrrolidine-3-carbonitrile] | 988 | 19.9 | 43
CC(=O)c1ccc(-n2cnc3cc4c(cc32)CCN4)nc1-n1nc(C#N)cc1C [Example 31, 1-[3-acetyl-6-(6,7-dihydro-5H-pyrrolo[2,3-f]benzimidazol-1-yl)-2-pyridyl]-5-methyl-pyrazole-3-carbonitrile] | 1230 | 9.1 | 13
COc1cc2ncn(-c3ccc(C(N)=O)c(NC(CN)c4cccc(Cl)c4)n3)c2cc1OC (stereo not drawn) [Example 10, 2-[[2-amino-1-(3-chlorophenyl)ethyl]amino]-6-(5,6-dimethoxybenzimidazol-1-yl)pyridine-3-carboxamide hydrochloride] | 44.9 | 1.2 | 1.7
COc1cc2ncn(-c3ccc(C(N)=O)c(Nc4ccccc4)n3)c2cc1OC [Example 2, 6-(5,6-Dimethoxy-benzoimidazol-1-yl)-2-phenylamino-nicotinamide] | 97.2 | 3.8 | 14
Cc1ccc(Nc2ccc3c(c2)ncn3-c2ccc(C(N)=O)c(OC(C)C(F)F)n2)nn1 (stereo not drawn) [Example 23, 2-(2,2-Difluoro-1-methyl-ethoxy)-6-[5-[(6-methylpyridazin-3-yl)amino]benzimidazol-1-yl]pyridine-3-carboxamide] | 4.9 | 15.2 | 361
COc1cc2ncn(-c3ccc(C(=O)NCC(F)(F)F)c(-c4cccc(C#N)c4)n3)c2cc1OC [Example 20, 2-(3-Cyanophenyl)-6-(5,6-dimethoxybenzimidazol-1-yl)-N-(2,2,2-trifluoroethyl)pyridine-3-carboxamide] | > 30000 | 6240 | 12100
COc1cc2ncn(-c3ccc(C(N)=O)c(Oc4ccccc4Cl)n3)c2cc1OC [Example 1, 2-(2-chlorophenoxy)-6-(5,6-dimethoxybenzimidazol-1-yl)pyridine-3-carboxamide] | 57.2 | 14.2 | 15.1
